Experimental data as given in patent US5491135A (priority 1993, dated 1996).
Several values for one entry are separate records, joined by “and”; a condition that tells them apart may be missing. Equal entries are not always repeated. Entries after “also recorded” stand apart in the source; their conditions may differ.

Legend:
[1] = system: HCMV strain AD 169; experiment: Rabbit model of HCMV chorioretinitis (Example 5); type: in vivo, pigmented rabbit; settings: for histology: preliminary
Protocol: A total of 32 pigmented rabbits were used in this study. Animals were evaluated by slit lamp and indirect ophthalmoscopy to determine normal ocular morphology and lack of preexisting pathology. Animals were handled as follows:
[1] On day 0, all rabbits were inoculated by mid-vitreal injection of 10^5 PFU HCMV strain AD 169 in 100 μl.
[2] Animals were maintained in individual cages and developing chorioretinal HCMV disease was monitored daily. On day 2 PI, HCMV-inoculated animals were divided into 8 groups of 4 rabbits each with matched chorioretinal disease scores. The HCMV-infected rabbits received intravenous therapy as indicated below:
Group #1--4 animals, intravenous injection of high dose experimental drug (50 mg/kg) daily from day 2 through 10 PI. A total of 9 IV injections.
Group #3--4 animals, intravenous injection of low dose experimental drug (20 mg/kg) daily from day 2 through 10 PI. A total of 9 IV injections.
Group #4--4 animals, intravenous injection of high dose experimental drug (50 mg/kg) daily from day 2 through 10 PI (a total of 9 IV injections) plus high dose DHPG 10 mg/kg/day in 2 divided doses from day 2 through 10 PI (a total of 18 IV injections).
Group #5--4 animals, intravenous injection of high dose experimental drug (50 mg/kg) daily from day 2 through 10 PI (a total of 9 IV injections) plus low dose DHPG 5 mg/kg/day in 2 divided doses from day 2 through 10 PI (a total of 18 IV injections).
Group #6--4 animals, intravenous injection of low dose experimental drug (20 mg/kg) daily from day 2 through 10 PI (a total of 9 IV injections) plus low dose DHPG 5 mg/kg/day in 2 divided doses from day 2 through 10 PI (a total of 18 IV injections).
Group #7--4 animals, intravenous injection of DHPG 10 mg/kg/day in 2 divided doses from day 2 through day 10 PI. A total of 18 IV injections.
Group #8--4 animals, intravenous injection of sterile saline on days 2 through 10 PI.
[3] All animals received daily indirect ophthalmoscopic examinations to evaluate clinical HCMV disease progression (From days 2 through 10 PI). The indirect ophthalmoscopic examinations were performed independently by two readers who were masked as to the therapy that the rabbits were receiving.
[4] All animals were sacrificed on day 12 PI. Chorioretina and iris tissues and vitreous samples will be removed and processed for HCMV recovery by cell sonicate assay on Hs68 cell monolayers. Selected ocular and lung tissue samples were processed for histochemistry to evaluate HCMV-induced ocular pathology in treated and non-treated groups.
The clinical, virus recovery and histological efficacy results for all drug-treated intravenous therapy groups were correlated with each other and with the placebo therapy group.

[2] = system: HCMV strain AD 169; experiment: Rabbit HCMV efficacy and time course recovery (Example 6)
[3] = PALA 50 daily, DHPG 10/day, or PALA 50 + DHPG 10 or 5 mg/kg i.v.
[4] = PALA 50, DHPG 10 or both, mg/kg/day i.v.
[5] = day 3, DHPG 10 or PALA 50 + DHPG 10 mg/kg/d, sum of both eyes
[6] = day 3, PALA 50, DHPG 10 or both, mg/kg/d
[7] = day 3, sham-inoculated S1-S5, dose as groups 1-5
[8] = day 4, DHPG 10 or PALA 50 + DHPG 10 mg/kg/d, sum of both eyes
[9] = day 4, PALA 50, DHPG 10 or both, mg/kg/d
[10] = day 4, sham-inoculated S1-S5, dose as groups 1-5
[11] = day 5, DHPG 10 or PALA 50 + DHPG 10 mg/kg/d, sum of both eyes
[12] = day 5, PALA 50, DHPG 10 or both, mg/kg/d
[13] = day 5, sham-inoculated S1-S5, dose as groups 1-5
[14] = day 6, PALA 50, DHPG 10 or both, mg/kg/d
[15] = day 6, PALA 50 or DHPG 10 mg/kg/d
[16] = day 6, sham-inoculated S1-S5, dose as groups 1-5
[17] = day 7, DHPG 10 or PALA 50 + DHPG 10 mg/kg/d, sum of both eyes
[18] = day 7, sham-inoculated S1-S5, dose as groups 1-5
[19] = day 10, DHPG 10 or PALA 50 + DHPG 10 mg/kg/d, sum of both eyes
[20] = day 10, sham-inoculated S1-S5, dose as groups 1-5
[21] = PALA 50 mg/kg every other day i.v.
[22] = PALA 20 daily, alone or + DHPG 5 mg/kg i.v.

For Nc1nc(O)c2ncn(COC(CO)CO)c2n1 [DHPG, reference compound], which “HCMV recovery day 12 PI” value [1, 3] is on record?
The value was “No HCMV was recovered”.

And the “clinical efficacy” value [1, 3]?
The value was “did reduce the development of HCMV chorioretinal infection and disease; also recorded: effective in reducing the severity of HCMV-induced chorioretinal disease”.

What about the “lung appearance at sacrifice” value [1, 3] of the same compound?
Its value is “the lungs appeared normal”.

And the vitreitis severity [1, 3]?
Its vitreitis severity is “moderate levels from day 4 through day 10 PI”.

And the “eyes with stabilized chorioretinal disease” value ([1]; by day 6-7 PI, DHPG 10 mg/kg/day)?
The value was 70%.

And the “HCMV recovery” value [2, 4]?
Its value is “better than the mid-dose and low-dose combination therapy group and the single agent PALA group and the placebo therapy group”.

And the “clinical disease” value [2, 4]?
Its value is “did reduce the development of HCMV chorioretinal infection and disease and vitreitis”.

And the “Optic neuritis score (ONH)” value ([2]; day 3, DHPG 10 or PALA 50 + DHPG 10 mg/kg/d)?
Its value is 2.

What about the “Chorioretinal score (C)” value [2, 5] of the same compound?
The value was 0.

What about the “Vitreitis score (V)” value [2, 5] of the same compound?
Its value is 3 and 2.

What about the “HCMV Recovered, OD” value [2, 6] of the same compound?
Its value is “+”.

What about the “HCMV Recovered, OS” value [2, 6] of the same compound?
Its value is “+”.

What about the “HCMV Titer, OD” value [2, 6] of the same compound?
Its value is 10^3 pfu.

What about the “HCMV Titer, OS” value [2, 6] of the same compound?
Its value is 10^3 pfu.

What about the HCMV recovery frequency [2, 6] of the same compound?
Its HCMV recovery frequency is 2/2.

What about the “Chorioretinal score (C)” value [2, 7] of the same compound?
Its value is 0.

And the “Vitreitis score (V)” value [2, 7]?
Its value is 0.

And the “Optic neuritis score (ONH)” value ([2]; day 3, sham-inoculated S2-S5, dose as groups 2-5)?
The value was 0.

And the “Chorioretinal score (C)” value [2, 8]?
Its value is 0.5.

What about the “Vitreitis score (V)” value [2, 8] of the same compound?
The value was 4 and 4.25.

And the “HCMV Recovered, OD” value [2, 9]?
The value was “+”.

And the “HCMV Recovered, OS” value [2, 9]?
Its value is “-”.

And the “HCMV Titer, OD” value [2, 9]?
Its value is 10^1 pfu.

And the HCMV recovery frequency [2, 9]?
The HCMV recovery frequency was 1/2.

What about the “Chorioretinal score (C)” value [2, 10] of the same compound?
The value was 0.

What about the “Vitreitis score (V)” value [2, 10] of the same compound?
Its value is 0.

And the “Optic neuritis score (ONH)” value ([2]; day 4, sham-inoculated S2-S5, dose as groups 2-5)?
Its value is 0.

And the “Optic neuritis score (ONH)” value ([2]; day 5, DHPG 10 or PALA 50 + DHPG 10 mg/kg/d)?
The value was 4 and 5.

What about the “Chorioretinal score (C)” value [2, 11] of the same compound?
The value was 0.5.

And the “Vitreitis score (V)” value [2, 11]?
The value was 4.5 and 2.75.

What about the “HCMV Recovered, OD” value [2, 12] of the same compound?
The value was “-”.

And the “HCMV Recovered, OS” value [2, 12]?
The value was “-”.

What about the HCMV recovery frequency [2, 12] of the same compound?
Its HCMV recovery frequency is 0/2.

What about the “Chorioretinal score (C)” value [2, 13] of the same compound?
Its value is 0.

What about the “Vitreitis score (V)” value [2, 13] of the same compound?
Its value is 0.

What about the “Optic neuritis score (ONH)” value ([2]; day 5, sham-inoculated S2-S5, dose as groups 2-5) of the same compound?
The value was 0.

What about the “Vitreitis score (V)” value ([2]; day 6, DHPG 10 or PALA 50 + DHPG 10 mg/kg/d, sum of both eyes) of the same compound?
Its value is 3.5 and 2.5.

And the “HCMV Recovered, OD” value [2, 14]?
The value was “+”.

What about the “HCMV Recovered, OS” value [2, 14] of the same compound?
Its value is “-”.

What about the HCMV recovery frequency [2, 14] of the same compound?
The HCMV recovery frequency was 1/2.

What about the “HCMV Titer, OD” value [2, 15] of the same compound?
Its value is 10^1 pfu.

And the “Chorioretinal score (C)” value [2, 16]?
Its value is 0.

What about the “Vitreitis score (V)” value [2, 16] of the same compound?
The value was 0.

What about the “Optic neuritis score (ONH)” value ([2]; day 6, sham-inoculated S2-S5, dose as groups 2-5) of the same compound?
Its value is 0.

What about the “Optic neuritis score (ONH)” value ([2]; day 7, DHPG 10 or PALA 50 + DHPG 10 mg/kg/d) of the same compound?
The value was 3 and 6.

What about the “Chorioretinal score (C)” value [2, 17] of the same compound?
Its value is 0.

What about the “Vitreitis score (V)” value [2, 17] of the same compound?
Its value is 3.5 and 3.

What about the “Chorioretinal score (C)” value [2, 18] of the same compound?
The value was 0.

And the “Vitreitis score (V)” value [2, 18]?
The value was 0.

What about the “Optic neuritis score (ONH)” value ([2]; day 7, sham-inoculated S2-S5, dose as groups 2-5) of the same compound?
The value was 0.

And the “Optic neuritis score (ONH)” value ([2]; day 10, DHPG 10 or PALA 50 + DHPG 10 mg/kg/d)?
Its value is 3.

And the “Chorioretinal score (C)” value [2, 19]?
Its value is 0.

What about the “Vitreitis score (V)” value [2, 19] of the same compound?
Its value is 1.75 and 1.25.

And the “Chorioretinal score (C)” value [2, 20]?
Its value is 0.

What about the “Vitreitis score (V)” value [2, 20] of the same compound?
Its value is 0.

What about the “Optic neuritis score (ONH)” value ([2]; day 10, sham-inoculated S2-S5, dose as groups 2-5) of the same compound?
Its value is 0.

What does the source list for O=C(O)C[C@H](NC(=O)CP(=O)(O)O)C(=O)O [PALA]?
histology ([1]; PALA 20 mg/kg daily i.v.): diffuse disease with moderate to severe chorioretinal disease; histology ([1]; PALA 50 mg/kg daily i.v.): moderate areas of chorioretinal HCMV disease restricted to the inner retina; HCMV recovery day 12 PI [1, 21]: No HCMV was recovered; clinical efficacy [1, 21]: marginally effective; lung appearance at sacrifice [1, 21]: clear and non congested; optic nerve head edema and redness [1, 21]: severe on days 3-4 PI; vitreitis severity [1, 21]: moderate to severe levels within 3-4 days post inoculation; HCMV recovery day 12 PI [1, 22]: No HCMV was recovered; clinical efficacy [1, 22]: not effective; HCMV recovery day 12 PI [1, 3]: No HCMV was recovered; clinical efficacy [1, 3]: only marginally effective; also recorded: not effective; lung appearance at sacrifice [1, 3]: clear and non congested; vitreitis severity [1, 3]: moderate levels within 3-4 days post inoculation; interstitial pneumonitis ([1]; rabbit, in vivo): prevented interstitial pneumonitis; HCMV recovery [2, 4]: better than recovery in placebo treated eyes; HCMV Recovered, OD [2, 6]: +; HCMV Recovered, OS [2, 6]: +; HCMV Titer, OD [2, 6]: 10^4 pfu; HCMV Titer, OS [2, 6]: 10^4 pfu; HCMV recovery frequency [2, 6]: 2/2; Chorioretinal score (C) [2, 7]: 0; Vitreitis score (V) [2, 7]: 0; HCMV Recovered, OD [2, 9]: +; HCMV Recovered, OS [2, 9]: +; HCMV Titer, OD [2, 9]: 10^3 pfu; HCMV Titer, OS [2, 9]: 10^2 pfu; HCMV recovery frequency [2, 9]: 2/2; Chorioretinal score (C) [2, 10]: 0; Vitreitis score (V) [2, 10]: 0; HCMV Titer, OD ([2]; day 5, PALA 50 mg/kg/d): 10^1 pfu; HCMV Titer, OS ([2]; day 5, PALA 50 mg/kg/d): 10^2 pfu; HCMV Recovered, OD [2, 12]: +; HCMV Recovered, OS [2, 12]: +; HCMV recovery frequency [2, 12]: 2/2; Chorioretinal score (C) [2, 13]: 0; Vitreitis score (V) [2, 13]: 0; HCMV Titer, OS ([2]; day 6, PALA 50 mg/kg/d): 10^1 pfu; HCMV Recovered, OD [2, 14]: +; HCMV Recovered, OS [2, 14]: +; HCMV recovery frequency [2, 14]: 2/2; HCMV Titer, OD [2, 15]: 10^1 pfu; Chorioretinal score (C) [2, 16]: 0; Vitreitis score (V) [2, 16]: 0; Chorioretinal score (C) [2, 18]: 0; Vitreitis score (V) [2, 18]: 0; Chorioretinal score (C) [2, 20]: 0; Vitreitis score (V) [2, 20]: 0; vitreitis / chorioretinal disease ([2]; sham-inoculated S1, PALA 50 mg/kg/day): did not develop any vitreitis nor chorioretinal disease
